23 compounds from US20250282736A1, “SMALL MOLECULE MODULATORS OF HUMAN PREGNANE X RECEPTOR” (ST. JUDE CHILDREN'S RESEARCH HOSPITAL, priority 2022, published 2025) can be followed below.

The inhibition is the drop in the measured response relative to a control, in per cent.

Where two headings read alike, the source gives them in different places.

Data set [1] addresses T1, hPXR (Homo sapiens (Human), UniProt O75469). Put plainly: cell-based hPXR inverse agonistic assay. The note with it: for inhibition at 10 µM: read-out: Inverse agonist (% inhibition at 10 μM).
The target in data set [2] is T1, hPXR. Put plainly: hPXR binding assay. The following applies: for inhibition at 10 µM: read-out: Binding (% inhibition at 10 μM).
The target in data set [3] is T1, hPXR. Description: cell-based hPXR agonistic assay. The following applies: for Agonist (% activation at 10 μM): rifampicin at 10 μM as 100% activation, DMSO (0.3%) as 0%.
Data set [4] deals with T1, hPXR. Description: cell-based hPXR antagonistic assay. The following applies: for inhibition at 10 µM: read-out: Antagonist (% inhibition at 10 μM).
The mark [5] stands for this setting: read-out: Binding (IC50/μM), hPXR binding assay.
Setting [6] is: read-out: Agonist (EC50/μM), cell-based hPXR agonistic assay.

T1 sequence (O75469 whole entry): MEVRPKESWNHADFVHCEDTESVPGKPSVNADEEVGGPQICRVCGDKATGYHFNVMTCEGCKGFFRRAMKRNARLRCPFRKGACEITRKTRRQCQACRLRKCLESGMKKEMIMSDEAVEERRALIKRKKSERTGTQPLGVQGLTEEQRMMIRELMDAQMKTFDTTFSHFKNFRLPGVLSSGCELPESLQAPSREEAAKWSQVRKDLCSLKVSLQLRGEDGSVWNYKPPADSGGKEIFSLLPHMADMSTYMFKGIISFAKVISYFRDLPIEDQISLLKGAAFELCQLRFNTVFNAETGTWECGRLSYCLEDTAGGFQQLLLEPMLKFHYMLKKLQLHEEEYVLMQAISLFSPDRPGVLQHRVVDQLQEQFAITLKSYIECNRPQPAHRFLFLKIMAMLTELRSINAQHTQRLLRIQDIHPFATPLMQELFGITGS

As for `CCCCOc1ccc(C(C)(C)C)cc1NC(=O)c1nnn(-c2cc(OC)ccc2C)c1C` [H11], the values for the IC50 on hPXR [1], on hPXR [2] (setting [5]) and at hPXR [4] were greater than 30000 nM, 0.12 µM and greater than 30000 nM, respectively. Also, the inhibition at 10 µM on hPXR [2] worked out at 10%. For the same compound, the EC50 on hPXR [3] stood at 1.68 ± 0.34 µM. Further, the “Agonist (% activation at 10 μM)” value on hPXR [3] is recorded as “(16 ± 6)%”.

For the compound `CCC[C@H](CC)Oc1ccc(C(=O)Nc2ccc(N3CCN(C(C)=O)CC3)cc2)cc1NC(=O)c1nnn(-c2cc(OC)ccc2OC)c1C` [M8, (S)—N-(5-((4-(4-Acetylpiperazin-1-yl)Phenyl)Carbamoyl)-2-(Hexan-3-yloxy)Phenyl)-1-(2,5-Dimethoxyphenyl)-5-Methyl-1H-1,2,3-Triazole-4-Carboxamide], at hPXR [1], the IC50 came to 9 ± 2 nM and the inhibition at 10 µM worked out at 93%. The compound further had an EC50 at hPXR [3] greater than 30 µM. In addition, at hPXR [4], the IC50 amounted to 190 ± 70 nM and the inhibition at 10 µM is 97%.

For `CCCCNc1cc(NC(=O)c2nnn(-c3cc(Cl)ccc3OC)c2C)cc(C(C)(C)C)c1` [F3], the IC50 on hPXR [1] was 62 nM; at hPXR [2] (setting [5]), 0.12 µM; at hPXR [4], 210 nM. Moreover, the figures for the inhibition at 10 µM on hPXR [1], at hPXR [2] and on hPXR [4] were 89%, 83% and 104%, respectively. For the same compound, the EC50 on hPXR [3] is greater than 30 µM.

Regarding `COc1ccc(OC)c(-n2nnc(C(=O)Nc3ccc(N4CCN(C)CC4)cc3)c2C)c1` [A16], the results for the IC50 at hPXR [1], on hPXR [2] and against hPXR [4] were greater than 30000 nM, greater than 30 µM and greater than 30000 nM, respectively. Also, on hPXR [3], the EC50 is greater than 30 µM.

For the compound `COc1ccc(-n2nnc(C(=O)Nc3cccc(C(C)(C)C)c3)c2C)cc1` [E5], the IC50 on hPXR [1] is greater than 30000 nM; on hPXR [2], greater than 30 µM; at hPXR [4], greater than 30000 nM. Moreover, the EC50 at hPXR [3] was 4.05 ± 1.52 µM. Also, at hPXR [3], the “Agonist (% activation at 10 μM)” value is “(41 ± 3)%”.

As to `CCCC(C)Oc1ccc(C(C)(C)C)cc1NC(=O)c1nnn(-c2ccccc2OC)c1C` (stereo not drawn) [I2], the results for the IC50 at hPXR [1], on hPXR [2] (setting [5]) and on hPXR [4] were greater than 30000 nM, 0.0072 ± 0.0001 µM and 32 nM, respectively. The results for the inhibition at 10 µM on hPXR [2] and on hPXR [4] were 88% and 78%, respectively. On hPXR [3], this compound came in with an EC50 of 0.049 ± 0.008 µM. The “Agonist (% activation at 10 μM)” value on hPXR [3] is “(23 ± 19)%”.

With `COc1ccc(OC)c(-n2nnc(C(=O)Nc3ccc(N)c(C(C)(C)C)c3)c2C)c1` [C2, N-(4-amino-3-(tert-butyl)phenyl)-1-(2,5-dimethoxyphenyl)-5-methyl-1H-1,2,3-triazole-4-carboxamide], the IC50 on hPXR [1] is greater than 30000 nM; on hPXR [2] (setting [5]), 4.12 ± 1.4 µM; against hPXR [4], greater than 30000 nM. For the same compound, on hPXR [2], the inhibition at 10 µM worked out at 86%. For the same compound, the “Agonist (% activation at 10 μM)” value at hPXR [3] is listed as “(33 ± 7)%”. Also, at hPXR [3] (setting [6]), the EC50 is 0.28 µM.

In the case of `COc1ccc(OC)c(-n2nnc(C(=O)Nc3cc(C(C)(C)C)ccc3OCCOCCOCCOCCOCCOCCOc3ccc(C(C)(C)C)cc3NC(=O)c3nnn(-c4cc(OC)ccc4OC)c3C)c2C)c1` [B23, N,N′-((3,6,9,12,15-pentaoxaheptadecane-1,17-diylbis(oxy))bis(3-(tert-butyl)-6,1-phenylene))bis(1-(2,5-dimethoxyphenyl)-5-methyl-1H-1,2,3-triazole-4-carboxamide)], the IC50 is 16700 ± 3340 nM on hPXR [1], greater than 30 µM on hPXR [2] and greater than 30000 nM on hPXR [4]. The inhibition at 10 µM at hPXR [1] came to 45%. In addition, the EC50 on hPXR [3] was greater than 30 µM.

As for `CCC[C@H](CC)Oc1ccc(C(C)(C)C)cc1NC(=O)c1nnn(-c2cc(OC)c(F)cc2OC)c1C` [M10, (S)—N-(5-(Tert-Butyl)-2-(Hexan-3-yloxy)Phenyl)-1-(4-Fluoro-2,5-Dimethoxyphenyl)-5-Methyl-1H-1,2,3-Triazole-4-Carboxamide], the results for the IC50 at hPXR [1], on hPXR [2] (setting [5]) and against hPXR [4] were 4.4 ± 1.5 nM, 0.02 ± 0.005 µM and 23 ± 3 nM, respectively. The inhibition at 10 µM on hPXR [1] was 92%; at hPXR [2], 92%; on hPXR [4], 104%. This compound returned an EC50 at hPXR [3] greater than 30 µM.

`COC(=O)CCCOc1cc(NC(=O)c2nnn(-c3cc(OC)ccc3OC)c2C)cc(C(C)(C)C)c1` [D29]: the figures for the IC50 at hPXR [1], at hPXR [2] (setting [5]) and against hPXR [4] were 310 nM, 0.31 ± 0.17 µM and 1090 ± 300 nM, respectively. Moreover, the inhibition at 10 µM on hPXR [1] worked out at 105%; on hPXR [2], 25%; at hPXR [4], 107%. Further, the EC50 on hPXR [3] is greater than 30 µM.

In the case of `COc1ccc(OC)c(-n2nnc(C(=O)Nc3cc(OCC(=O)OC(C)(C)C)cc(C(C)(C)C)c3)c2C)c1` [D31, tert-butyl 2-(3-(tert-butyl)-5-(1-(2,5-dimethoxyphenyl)-5-methyl-1H-1,2,3-triazole-4-carboxamido)phenoxy)acetate], the IC50 was 100 nM at hPXR [1], 0.16 µM at hPXR [2] (setting [5]) and 430 nM against hPXR [4]. In addition, the figures for the inhibition at 10 µM at hPXR [1], on hPXR [2] and at hPXR [4] were 126%, 73% and 105%, respectively. Also, the EC50 on hPXR [3] is greater than 30 µM.

Take `CCc1cccc(NC(=O)c2nnn(-c3cc(OC)ccc3OC)c2C)c1` [A8]: the IC50 is greater than 30000 nM on hPXR [1], 16.1 ± 0.54 µM on hPXR [2] (setting [5]) and greater than 30000 nM on hPXR [4]. Also, at hPXR [2], the inhibition at 10 µM was 49%. The compound further had an EC50 on hPXR [3] greater than 30 µM.

Turning to `COc1ccc(OC)c(-n2nnc(C(=O)Nc3cccc(-n4cccc4)c3)c2C)c1` [A11], the IC50 on hPXR [1] is greater than 30000 nM; on hPXR [2] (setting [5]) it was 1.41 ± 0.69 µM; against hPXR [4] it was greater than 30000 nM. Also, on hPXR [2], the inhibition at 10 µM was found to be 24%. Also, on hPXR [3], the EC50 was greater than 30 µM.

On to `COc1ccc(-n2nnc(C(=O)Nc3ccccc3)c2C)cc1` [E4], for which the IC50 on hPXR [1] was greater than 30000 nM; at hPXR [2] it was greater than 30 µM; at hPXR [4], greater than 30000 nM. The compound further came in with an EC50 at hPXR [3] greater than 30 µM.

On to `COc1ccc(OC)c(-n2nnc(C(=O)Nc3cc(C(C)(C)C)ccc3N)c2C)c1` [B37], for which the figures for the IC50 on hPXR [1], at hPXR [2] and on hPXR [4] were greater than 30000 nM, greater than 30 µM and greater than 30000 nM, respectively. The “Agonist (% activation at 10 μM)” value at hPXR [3] is reported as “(25 ± 7)%”. Moreover, at hPXR [3] (setting [6]), the EC50 is 0.9 ± 0.22 µM.

On to `COc1ccc(Cl)cc1-n1nnc(C(=O)Nc2cc(N)cc(C(C)(C)C)c2)c1C` [F2, N-(3-amino-5-(tert-butyl)phenyl)-1-(5-chloro-2-methoxyphenyl)-5-methyl-1H-1,2,3-triazole-4-carboxamide], for which the values for the IC50 on hPXR [1], on hPXR [2] (setting [5]) and at hPXR [4] were 3620 ± 1740 nM, 7.68 ± 1.45 µM and 18200 ± 11100 nM, respectively. The inhibition at 10 µM stood at 101% on hPXR [1], 65% at hPXR [2] and 56% at hPXR [4]. Besides, on hPXR [3], the EC50 was greater than 30 µM.

Take `CCC[C@H](CC)Oc1ccc(C(=O)OC)cc1NC(=O)c1nnn(-c2cc(OC)ccc2OC)c1C` [M4, Methyl (S)-3-(1-(2,5-Dimethoxyphenyl)-5-Methyl-1H-1,2,3-Triazole-4-Carboxamido)-4-(Hexan-3-yloxy)Benzoate]: the IC50 was determined as 1 nM at hPXR [1], 0.003 µM at hPXR [2] and 6 nM against hPXR [4]. Besides, the inhibition at 10 µM at hPXR [1] turned out to be 142%; on hPXR [2], 84%; at hPXR [4], 112%. The same compound showed an EC50 at hPXR [3] greater than 30 µM.

As to `COc1ccc(OC)c(-n2nnc(C(=O)Nc3ccc(CN4CCN(C)CC4)c(C(F)(F)F)c3)c2C)c1` [A21], the IC50 is greater than 30000 nM on hPXR [1], greater than 30 µM on hPXR [2] and greater than 30000 nM at hPXR [4]. The compound further registered an EC50 on hPXR [3] greater than 30 µM.

Turning to `COc1ccc(OC)c(-n2nnc(C(=O)Nc3cc(OCCCCCCCCI)cc(C(C)(C)C)c3)c2C)c1` [D21, N-(3-(tert-butyl)-5-((8-iodooctyl)oxy)phenyl)-1-(2,5-dimethoxyphenyl)-5-methyl-1H-1,2,3-triazole-4-carboxamide], the IC50 at hPXR [1] is 330 nM; on hPXR [2] (setting [5]) it was 1.09 ± 0.31 µM; against hPXR [4], 2700 nM. Moreover, the values for the inhibition at 10 µM on hPXR [1], at hPXR [2] and on hPXR [4] were 92%, 59% and 82%, respectively. In addition, the EC50 on hPXR [3] is greater than 30 µM.

With `CCCCCCCCOc1cc(NC(=O)c2nnn(-c3cc(OC)ccc3OC)c2C)cc(C(C)(C)C)c1` [D20], the IC50 was determined as 820 ± 120 nM on hPXR [1], 1 µM at hPXR [2] (setting [5]) and 11500 ± 2810 nM at hPXR [4]. The values for the inhibition at 10 µM at hPXR [1], at hPXR [2] and at hPXR [4] were 104%, 42% and 35%, respectively. The EC50 on hPXR [3] is greater than 30 µM.

`CCOc1cc(NC(=O)c2nnn(-c3cc(OC)ccc3OC)c2C)nc(OCC)n1` [A18]: the IC50 on hPXR [1] is greater than 30000 nM; on hPXR [2] (setting [5]), 12.6 ± 3.09 µM; on hPXR [4] it was greater than 30000 nM. Besides, the inhibition at 10 µM on hPXR [2] is 36%. In addition, the EC50 at hPXR [3] is greater than 30 µM.

At hPXR [1], `CCC[C@H](CC)Oc1ccc(C(=O)N2CCN(C(C)=O)CC2)cc1NC(=O)c1nnn(-c2cc(OC)ccc2OC)c1C` [M7, (S)—N-(5-(4-Acetylpiperazine-1-Carbonyl)-2-(Hexan-3-yloxy)Phenyl)-1-(2,5-Dimethoxyphenyl)-5-Methyl-1H-1,2,3-Triazole-4-Carboxamide] displayed an IC50 greater than 30000 nM. Moreover, on hPXR [3], the EC50 stood at 0.013 ± 0.003 µM and the “Agonist (% activation at 10 μM)” value is on record as “(29 ± 4)%”. Besides, on hPXR [4], the IC50 came to 130 ± 40 nM and the inhibition at 10 µM turned out to be 76%.

On to `CCC[C@H](CC)Oc1ccc(C(=O)N2CCN(C)CC2)cc1NC(=O)c1nnn(-c2cc(OC)ccc2OC)c1C` [M6, (S)-1-(2,5-Dimethoxyphenyl)-N-(2-(Hexan-3-Yloxy)-5-(4-Methylpiperazine-1-Carbonyl)Phenyl)-5-Methyl-1H-1,2,3-Triazole-4-Carboxamide], for which the IC50 at hPXR [1] came out at 11 ± 1 nM; against hPXR [4], 70 ± 10 nM. For the same compound, the inhibition at 10 µM on hPXR [1] was found to be 112%; on hPXR [4], 108%. On hPXR [3], this compound displayed an EC50 greater than 30 µM.
